Laboratory results taken from ChEMBL document CHEMBL1135808, “A new type of mixed anhydride and its applications to the synthesis of 7-substituted 8-chloro-5,5-dioxoimidazo[1,2-b][1,4,2]benzodithiazines with in vitro antitumor activity” (2002).

What was measured:
NCI-H226 = experiment: In vitro total growth inhibition against non-small-cell lung cancer NCI-H226 cell lines was reported.; type: functional; details: Homo sapiens, read-out: Log TGI (converted)
NCI-H522 = experiment: In vitro total growth inhibition against non-small-cell lung cancer NCI-522 cell lines was reported.; type: functional; details: Homo sapiens, read-out: Log TGI (converted)
Tumor Cell line = experiment: In vitro total growth inhibition for 50 cell lines was reported as log of molar concentration; type: functional, Homo sapiens
OVCAR-3 = experiment: Log of molar concentration leading to 50% cell death against ovarian cancer OVCAR-3 cell line was reported; type: functional; details: Homo sapiens, read-out: Log LC50 (the source's name) (converted)
KM12 [1] = experiment: In vitro total growth inhibition against colon cancer KM12 cell lines was reported.; type: functional; details: Homo sapiens, read-out: Log TGI (converted)
MDA-N = experiment: In vitro total growth inhibition against breast cancer MDA-N cell lines was reported.; type: functional; details: Homo sapiens, read-out: Log TGI (converted)
ACHN = experiment: In vitro total growth inhibition against renal cancer ACHN cell lines was reported.; type: functional; details: Homo sapiens, read-out: Log TGI (converted)
PC-3 [2] = experiment: In vitro growth inhibition against prostate cancer PC-3 cell line was reported.; type: functional; details: Homo sapiens
KM12 [3] = experiment: In vitro growth inhibition against colon cancer KM12 cell line was reported.; type: functional; details: Homo sapiens
OVCAR-8 [4] = experiment: In vitro total growth inhibition against ovarian cancer OVCAR-8 cell lines was reported.; type: functional; details: Homo sapiens, read-out: Log TGI (converted)
SR = experiment: In vitro growth inhibition against leukemia SR cell line was reported.; type: functional; details: Homo sapiens
T47D = experiment: In vitro total growth inhibition against breast cancer […] cell lines was reported.; type: functional; details: Homo sapiens, read-out: Log TGI (converted)
CCRF-CEM = experiment: In vitro growth inhibition against leukemia CCRF-CEM cell line was reported.; type: functional; details: Homo sapiens
TK-10 = experiment: Log of molar concentration leading to 50% cell death against renal cancer TK-10 cell line was reported; type: functional; details: Homo sapiens, read-out: Log LC50 (the source's name) (converted)
MDA-MB-231 = experiment: Log of molar concentration leading to 50% cell death against breast cancer MDA-MB-231/ATCC cell line was reported; type: functional; details: Homo sapiens, read-out: Log LC50 (the source's name) (converted)
HCC 2998 [5] = experiment: Log of molar concentration leading to 50% cell death against colon cancer HCC2998 cell line was reported; type: functional; details: Homo sapiens, read-out: Log LC50 (the source's name) (converted)
BT-549 = experiment: In vitro total growth inhibition against breast cancer BT 549 cell line was reported.; type: functional; details: Homo sapiens, read-out: Log TGI (converted)
SF-295 = experiment: Log of molar concentration leading to 50% cell death against CNS cancer SF-295 cell line was reported; type: functional; details: Homo sapiens, read-out: Log LC50 (the source's name) (converted)
HL-60 = experiment: In vitro total growth inhibition against leukemia HL-60(TB) cell lines was reported.; type: functional; details: Homo sapiens, read-out: Log TGI (converted)
MOLT-4 = experiment: In vitro growth inhibition against leukemia MOLT-4 cell line was reported.; type: functional; details: Homo sapiens
OVCAR-8 [6] = experiment: In vitro growth inhibition against ovarian cancer OVCAR-8 cell line was reported.; type: functional; details: Homo sapiens
PC-3 [7] = experiment: In vitro total growth inhibition against prostate cancer PC-3 cell lines was reported.; type: functional; details: Homo sapiens, read-out: Log TGI (converted)
NCI-H322M = experiment: In vitro total growth inhibition against non-small-cell lung cancer NCI-H322M cell lines was reported.; type: functional; details: Homo sapiens, read-out: Log TGI (converted)
COLO 205 [8] = experiment: Log of molar concentration leading to 50% cell death against colon cancer COLO 205 cell line was reported; type: functional; details: Homo sapiens, read-out: Log LC50 (the source's name) (converted)
SF-539 = experiment: Log of molar concentration leading to 50% cell death against CNS cancer SF-539 cell line was reported; type: functional; details: Homo sapiens, read-out: Log LC50 (the source's name) (converted)
HT-29 = experiment: In vitro growth inhibition against colon cancer HT-29 cell line was reported.; type: functional; details: Homo sapiens
HCC 2998 [9] = experiment: In vitro total growth inhibition against colon cancer HCC2998 cell lines was reported.; type: functional; details: Homo sapiens, read-out: Log TGI (converted)
COLO 205 [10] = experiment: In vitro total growth inhibition against colon cancer COLO 205 cell lines was reported.; type: functional; details: Homo sapiens, read-out: Log TGI (converted)
K562 = experiment: In vitro growth inhibition against leukemia K-562 cell line was reported.; type: functional; details: Homo sapiens
SW-620 = experiment: In vitro growth inhibition against colon cancer SW620 cell line was reported.; type: functional; details: Homo sapiens
UACC-62 = experiment: In vitro total growth inhibition against melanoma UACC-62 cell lines was reported.; type: functional; details: Homo sapiens, read-out: Log TGI (converted)

Structure (SMILES): O=C(Nc1nccs1)c1cc2c(cc1Cl)Sc1nccn1S2(=O)=O
- TGI (NCI-H226): 35.5 µM
- TGI (NCI-H522): 2820 nM
- Log GTI (Tumor Cell line): -4.04
- CC50 (OVCAR-3): 53.7 µM
- TGI (KM12 [1]): 26.3 µM
- TGI (MDA-N): 33.1 µM
- TGI (ACHN): 32.4 µM
- GI50 (PC-3 [2]): 17 µM
- GI50 (KM12 [3]): 12.3 µM
- TGI (OVCAR-8 [4]): 37.2 µM
- GI50 (SR): 3.02 µM
- TGI (T47D): 64.6 µM
- GI50 (CCRF-CEM): 5.01 µM
- CC50 (TK-10): 63.1 µM
- CC50 (MDA-MB-231): 67.6 µM
- CC50 (HCC 2998 [5]): 53.7 µM
- TGI (BT-549): 35.5 µM
- CC50 (SF-295): 64.6 µM
- TGI (HL-60): 30.9 µM
- GI50 (MOLT-4): 19.1 µM
- GI50 (OVCAR-8 [6]): 17.4 µM
- TGI (PC-3 [7]): 33.1 µM
- TGI (NCI-H322M): 33.9 µM
- CC50 (COLO 205 [8]): 56.2 µM
- CC50 (SF-539): 72.4 µM
- GI50 (HT-29): 20 µM
- TGI (HCC 2998 [9]): 29.5 µM
- TGI (COLO 205 [10]): 30.9 µM
- GI50 (K562): 15.8 µM
- GI50 (SW-620): 17 µM
- TGI (UACC-62): 27.5 µM
